Several values for one entry are separate records, joined by “and”; a condition that tells them apart may be missing. Equal entries are not always repeated.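 Cultured in 96-well plates, cells were exposed to test compound for 48 hours across five concentrations. GI50 marks 50% less growth. Definition used: TGI = concentration required for complete inhibition of growth.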
Test system: MDA-MB-468 breast
Experiment: NCI tumour cell line growth inhibition, 48 h

Row | SMILES | GI50 | TGI
1 | N#CC1CCc2c(c(-c3cn[nH]c3C(F)(F)F)nc3c(F)cc4[nH]ncc4c23)C1 (stereo not drawn) | 2.19 µM | 6.23 µM
2 | C[C@H]1CC2=CC(=O)CC[C@]2(C)[C@H]2CC[C@@]3(C)[C@@H](CC[C@]3(C)O)[C@H]12 | 33.9 µM | > 100 µM
3 | COc1cc(CNC(=O)CCSc2nc3ccccc3c(=O)n2Cc2cc(OC)c(OC)c(OC)c2)cc(OC)c1OC | 2.35 µM | 9.67 µM
4 | CS(=O)(=O)Nc1cc(-c2ccc3ncnc(Nc4cccc(Cl)c4F)c3c2)cnc1Cl | 1.28 µM | 3.44 µM
5 | CCN(CC)CCOc1nc2cc(OC)c(OC)cc2c2c1-c1ccc(OC)cc1C2=O | 10.1 µM | 23.1 µM
6 | C#CCOc1cccc(Nc2ncc3ncn(C4CCN(C(=O)CCl)C4)c3n2)c1 (stereo not drawn) | 19.7 µM | > 62.5 µM
7 | CC[C@H](C)[C@H](NC(=O)c1nccn1C)C(=O)N(C)[C@H](C[C@@H](OC(C)=O)c1nc(C(=O)N[C@@H](Cc2ccccc2)C[C@H](C)C(=O)OC)cs1)C(C)C | 0.427 µM | > 33.3 µM
8 | Cn1c(O)c(N=NC(N)=S)c2ccccc21 | 20.4 µM | > 100 µM
9 | O=C(Nc1cccc([N+](=O)[O-])c1)c1cc2ccccc2cc1O | 2.32 µM | 17.5 µM
10 | C=C1C[C@@H]2[C@H](CC[C@]3(C)C(=O)CC[C@@H]23)[C@@]2(C)C=CC(=O)C=C12 | 14.6 µM | 65.2 µM
11 | NC(=S)N/N=C\c1nccc2c(C(F)(F)C(F)(F)C(F)(F)F)cccc12 | 0.04 µM | 0.262 µM
12 | OC1CCN(CCCOc2c3ccccc3nc3c2oc2ccc(Cl)cc23)CC1 | 1.61 µM | 5.71 µM
13 | C=C1C(=O)O[C@H]2[C@H]1CC/C(COC(=O)/C=C/c1c[nH]c3ccccc13)=C\CC[C@@]1(C)O[C@@H]21 | 0.196 µM | 0.404 µM
14 | CN1CCc2c(sc3ncnc(N/N=C/c4ccc(Cl)c(Cl)c4)c23)C1 | 10.9 µM | 25.8 µM
15 | O=c1[nH]cnc2nc(-c3ccc(N(CCCl)CCCl)cc3)[nH]c12 | > 100 µM | > 100 µM
16 | O=C(Nc1ccc(-c2ccnc(Nc3ccc(N4CCOCC4)cc3)n2)cc1)C1CCCN1 (stereo not drawn) | 10.2 µM | 26.3 µM
17 | Cc1ccc2cnc(N)c(C#Cc3cncc(C(=O)Nc4ccc(CN5CCN(C)CC5)c(C(F)(F)F)c4)c3)c2c1 | 0.662 µM | 1.47 µM
18 | COc1cc2c(cc1O)CC[C@@H]1C2CC[C@@]2(C)C1CC[C@@H]2O (stereo partly drawn) | 31.1 µM | > 100 µM
19 | O=c1oc2cc(OS(=O)(=O)c3ccccc3)ccc2c2c1CCCCC2 | 2.85 µM | > 100 µM
20 | CCC(=O)OC1=CN2C(=NC(c3ccc(N)cc3)=CC2c2cc(OC)c(OC)c(OC)c2)S1 (stereo not drawn) | 2.1 µM | 6.32 µM

Row | SMILES | GI50 | TGI
21 | CC1(C)N=C(N)N=C(N)N1c1ccc(OCCCCNC(=O)c2ccc(S(=O)(=O)F)cc2)c(Cl)c1 | 18.4 µM | > 100 µM
22 | Cc1ccc(S(=O)(=O)c2ccsc2N)cc1 | 36.7 µM | > 100 µM
23 | Cc1ccc(/C=C2\CN(Cc3cn(CCNc4ccnc5cc(Cl)ccc45)nn3)C/C(=C\c3ccc(C)cc3)C2=O)cc1 | 1.62 µM | 3.72 µM
24 | C=C(C)[C@@H]1CC[C@]2(C)[C@H](CC=C3[C@@H]4[C@H](C)[C@@H](C)CC[C@]4(CO)CC[C@]32C)[C@@]1(C)CCCN | 0.819 µM | 1.66 µM
25 | FC(F)(F)c1cc(NC2=NCCN=C(Nc3cc(C(F)(F)F)cc(C(F)(F)F)c3)SS2)cc(C(F)(F)F)c1 | 2.07 µM | 7.45 µM
26 | NS(=O)(=O)c1ccc(Nc2nc(N/N=C/c3ccccn3)nc(Nc3ccccc3)n2)cc1 | 0.318 µM | 2.01 µM
27 | O=C(O)c1ccc2cccnc2c1O | 1.41 µM | 6.5 µM
28 | O=S1(=O)CC(Br)C(Br)C1 (stereo not drawn) | 1.39 µM | 3.82 µM
29 | COc1ccc(S(=O)(=O)n2c3ccccc3n3ncc(-c4nnc(C)o4)c23)cc1 | 0.266 µM | 5.49 µM
30 | c1cc2ccc1CNCCN1CCNCc3ccc(cc3)Oc3ccc(cc3)CNCCN(CCNCc3ccc(cc3)O2)CCNCc2ccc(cc2)Oc2ccc(cc2)CNCC1 | 0.673 µM | 2.09 µM
31 | Cc1cc(Cl)ccc1NC(=O)NC(C)(C)COC(=O)Nc1cccc(Cl)c1 | 4.61 µM | 36 µM
32 | Brc1ccc2c(c1)c(-c1nc(-c3c[nH]c4ncccc34)cs1)cn2CCCN1CCCCC1 | 1.7 µM | 3.25 µM
33 | Cc1nc2sc(C(=O)Nc3cccc(Cl)c3C)c(N)c2cc1C(C)O (stereo not drawn) | 0.0712 µM | 4.44 µM
34 | N#Cc1ncc(N2C(=O)C3(CCC3)N(c3ccc(OC4CCNCC4)nc3)C2=S)cc1C(F)(F)F | 9.8 µM | 24.6 µM
35 | CCCNc1cccc(-n2ncc3c(N/N=C/c4ccncc4)ncnc32)c1 | 0.768 µM | > 25 µM
36 | CC(C)(F)C[C@H](N[C@@H](c1ccc(-c2ccc(S(C)(=O)=O)cc2)cc1)C(F)(F)F)C(=O)NC1(C#N)CC1 | 54.4 µM and > 100 µM | 55 µM and > 100 µM
37 | Cc1[nH]n(-c2ccccc2)c(=O)c1C(=O)c1ccccc1 | 17.5 µM | > 25 µM
38 | O[C@H](CN1CC1)[C@@H](O)CN1CC1 | 0.389 µM | 2.65 µM
39 | O=C(c1ccccc1)c1ccccc1C(=O)c1ccccc1 | 28.7 µM | > 100 µM
